# From patent publication US7253296B2, “Acylated aminopropanediols and analogues and therapeutic uses thereof” (Genfit, priority 2003, dated 2007)
# Assays:
# LDL = assay: Protection against LDL oxidation induced by copper (conjugated diene formation, OD 234 nm); assay type: biochemical; settings: for intrinsic antioxidant properties (delay of copper-induced LDL oxidation): FIG. 2; for shift of the lag phase latency (conjugated diene formation): relative to control sample, FIG. 2a
# Procedure: Oxidation of LDL is an important modification which plays a major role in the onset and development of atherosclerosis (Jurgens, Hoff et al. 1987). […] Unless otherwise indicated, all reagents were from Sigma (St Quentin, France).
# LDL were prepared as described in Lebeau et al. (Lebeau, Furman et al. 2000). The solutions of the test compounds were prepared at 10^−2 M in ethanol and diluted in PBS so that the final concentration ranged from 0.1 to 100 μM with a total ethanol concentration of 1% (VN).
# Before oxidation, EDTA was removed from the LDL preparation by dialysis. The oxidation reaction was then carried out at 30° C. by adding 100 μl of 16.6 μM CuSO4 to 800 μl of LDL (125 μg protein/ml) and 100 μl of a test compound solution. The formation of dienes, the species to be followed, was measured by the optical density at 234 nm in the samples treated with the compounds in the presence or absence of copper. Optical density at 234 nm was measured every 10 minutes for 8 hours on a thermostated spectrophotometer (Kontron Uvikon 930). The analyses were carried out in triplicate. A compound was considered to have antioxidant activity when it shifted the lag phase latency relative to the control sample. […] FIG. 2 presents an example of the results obtained with the inventive compounds.
# Gal4/hPPARα = target: T1, Gal4/hPPARα (Homo sapiens, UniProt Q07869); assay: Gal4/PPARα transactivation system in HepG2 cells (luciferase reporter); settings: for induction factor (luminescent signal of treated cells divided by that of untreated cells): HepG2 cells, Gal4/PPARα, 24 h, FIG. 3
# T1 sequence (Q07869 239-466 limits assumed): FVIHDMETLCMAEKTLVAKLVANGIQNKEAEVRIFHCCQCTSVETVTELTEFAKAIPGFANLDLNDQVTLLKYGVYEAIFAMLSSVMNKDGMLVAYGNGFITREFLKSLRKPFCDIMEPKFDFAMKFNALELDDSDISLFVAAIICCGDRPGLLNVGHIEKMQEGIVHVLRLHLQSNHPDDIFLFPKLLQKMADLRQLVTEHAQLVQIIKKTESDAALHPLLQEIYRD
# Procedure: PPAR activation was tested in vitro in RK13 fibroblast cell lines or in a hematocyte line HepG2 by measuring the transcriptional activity of chimeras composed of the DNA binding domain of the yeast gal4 transcription factor and the ligand binding domain of the different PPARs.
# HepG2 cells were from ECACC (Porton Down, UK) and were grown in DMEM medium supplemented with 10% (VN) fetal calf serum, 100 U/ml penicillin (Gibco, Paisley, UK) and 2 mM L-glutamine (Gibco, Paisley, UK). The culture medium was changed every two days. Cells were kept at 37° C. in a humidified 95% air/5% CO2 atmosphere.
# The plasmids pG5TkpGL3, pRL-CMV, pGal4-hPPAR□, pGal4-hPPAR□ and pGal4-f have been described by Raspe et al. (Raspe, Madsen et al. 1999).
# HepG2 cells were seeded in 24-well culture dishes at 5×10^4 cells/well and transfected for 2 hours with the reporter plasmid pG5TkpGL3 (50 ng/well), the expression vectors pGal4-f, pGal4-mPPARα, pGal4-hPPARα, pGal4-hPPARγ, pGal4-hPPARβ (100 ng/well) and the transfection efficiency control vector pRL-CMV (1 ng/well) according to the previously described protocol (Raspe, Madsen et al. 1999), then incubated for 36 hours with the test compounds. At the end of the experiment, the cells were lysed (Gibco, Paisley, UK) and luciferase activity was determined with a Dual-Luciferase™ Reporter Assay System kit (Promega, Madison, Wis., USA) according to the supplier's instructions. The protein content of the cell extracts was then measured with the Bio-Rad Protein Assay kit (Bio-Rad, Munich, Germany) as directed by the supplier.
# The results are expressed as the induction factor (luminescent signal of treated cells divided by luminescent signal of untreated cells) after the different treatments.
Compound,melting point,intrinsic antioxidant properties (delay of copper-induced LDL oxidation) (LDL),shift of the lag phase latency (conjugated diene formation) (LDL),induction factor (luminescent signal of treated cells divided by that of untreated cells) (Gal4/hPPARα; 5 μM),induction factor (luminescent signal of treated cells divided by that of untreated cells) (Gal4/hPPARα; 15 μM),induction factor (luminescent signal of treated cells divided by that of untreated cells) (Gal4/hPPARα; 50 μM),induction factor (luminescent signal of treated cells divided by that of untreated cells) (Gal4/hPPARα; 100 μM),"PPARα activation (luciferase activity / luminescent signal), in words (Gal4/hPPARα; cells transfected with pGal4-hPPARα plasmid)"
"CCCCCCCCCCCCCCCC(=O)NCC(O)CO (stereo not shown) [Ex 3, 3-(palmitoylamino)propane-1,2-diol]",104 to 108 °C,–,–,–,–,–,–,–
"CCCCCCCCCCCCCCSCC(=O)NCC(O)CO (stereo not shown) [Ex 2, 3-(tetradecylthioacetylamino)propane-1,2-diol]",–,exhibit intrinsic antioxidant properties,more than 13%,1.5 fold,7.7 fold,19.8 fold,19.2 fold,–
"1,2-(ditetradecylthioacetyloxy)-3-tetradecylthioacetylaminopropane [Ex 5]",–,exhibit intrinsic antioxidant properties,–,"1,2 fold",2.5 fold,7 fold,10.5 fold,–
"CCCCCCCCCCCCCCSCC(=O)NCC(CNC(=O)CSCCCCCCCCCCCCCC)OC(=O)CSCCCCCCCCCCCCCC [Ex 11, 1,3-ditetradecylthioacetylamino-2-(tetradecylthioacetyloxy)propane]",–,exhibit intrinsic antioxidant properties,–,–,–,–,–,–
CCCCCCCCCCCCCCCC(=S)OC(CN)CN.Cl.Cl,224 °C (dec.),–,–,–,–,–,–,–
"1,2-(dipalmitoyloxy)-3-tetradecylthioacetylaminopropane [Ex 4]",–,exhibit intrinsic antioxidant properties,34.3%,–,–,–,–,–
"1,2-(ditetradecylthioacetyloxy)-3-palmitoylaminopropane [Ex 6]",–,exhibit intrinsic antioxidant properties,–,1.1 fold,2.2 fold,9.6 fold,14.5 fold,induced an increase in the luminescent signal
